Columns and labels:
Zucker NIDDM diabetes = assay: Heritable diabetes, Zucker NIDDM rats; assay type: in vivo; details: 25 μg/kg every 8 hr for approximately three months
Description: Male Zucker rats are a well established rat model for heritable non-insulin dependent diabetes mellitus (NIDDM), as described, for example, by Ward et al., Ann. Clin. Lab. Sci., 24:266-277, (1994), which is incorporated herein by reference. Eighteen male Zucker rats were used to study the effects of EX-2 on NIDDM, a chronic disease. The rats were placed into two groups and received either saline or 25 μg/kg EX-2 every 8 hr for approximately three months. Blood samples were collected by tail clip and urine samples were collected by placing animals in metabolic cages fro 24 hr. Plasma insulin was assayed using an RIA kit (Amersham Life Sciences, Arlington Heights, Ill.). Urine protein was assayed for using a commercial protein assay kit (Coomassie Plus, Pierce, Rockford, Ill.). Body weighed measurements were made with a Mettler Toledo top loader balance.

IL-10 = assay: Increasing levels of IL-10 in human plasma; assay type: in vivo; details: for increase of plasma IL-10: healthy male volunteers
Description: EX-2 was administered by intravenous infusion to eight healthy male volunteers in doses of either 200 or 500 ug/kg. Plasma IL-10 levels increased in two of four volunteers after administration at 200 ug/kg EX-2 (FIG. 3a) and in four of four volunteers after administration of 500 ug/kg EX-2 (FIG. 3b).

[1] = system: kidney (renal ischemia/reperfusion); assay: Renal ischemia-reperfusion injury; assay type: in vivo, rats; set-up: RVR: unit not given here; details: I/R + EX-2 (50 or 500 μg/kg iv, dose not given); 1 hr clamping, after 60 min reperfusion
Description: Sprague-Dawley rats (250-300 g) were anesthetized with inactin® (120 mg/kg). After deep anesthesia was assured, the rats were cannulated in the trachea with polyethylene (PE) tubing (PE 240), jugular vein, femoral artery, bladder (PE 50 for previous 3 cannulations), and left ureter (stretched PE 50). Once cannulation was completed, a 2 cm flank incision above the left kidney was performed and the renal pelvis and vascular bundle were exposed. The tissue surrounding the left renal artery was gently dissected away from the artery. The exposed renal artery was clamped for 1 hr using a small vascular cross-over clamp. Just prior to clamping, EX-2 (50 or 500 μg/kg), ketorolac (KETO, 1 mg/kg), or vehicle was administered intravenously (iv) After 1 hr of clamping (ischemia), the clamp was gently removed with care taken to avoid damaging either the renal artery or nerves.

LPS-induced lethality = LPS-induced lethality (IP dosing); assay type: in vivo, mice; details: 11 × 300 μg/mouse IP (3.3 mg), every 4 hr; 0.6 mg LPS
Description: These experiments were performed based on information reported by Rivier etal., Endocrinology 125:2800-2805 (1989), which is incorporated herein by reference. Adult female Balb/c mice were provided food and water ad libitum. Mice were injected IP every four hr for 40 hr with 30 to 300 μg EX-2, EX-3 or EX-4 in 0.2 ml saline (treated group) or with 0.2 ml saline, alone (control group) (10 mice per group). Immediately following the first injection, 0.6 mg LPS endotoxin in 0.2 ml saline was administered to each mouse. Following LPS injection, EX-2 or saline was administered to the treated mice or the control mice, respectively, every 4 hr for 36 hr.

IL-1-induced fever = assay: IL-1β-induced temperature increase (fever); assay type: in vivo, rats; details: 500 μg/kg IP
Description: Male Wistar rats (45-75 days old) were placed in a temperature controlled room held at 26° C., which is thermoneutral for the normal body temperature of rats, and were maintained in the room with free access to food and water for 24 hr prior to testing. On the morning of the study, rats were marked for identification and weighed. The temperature of each rat was determined by placing the animal in a regulatory cage designed to minimize stress and inserting a temperature probe (YSI probe #402) 3-5 cm into the animal's rectum. The temperature was recorded 15 sec after the reading stabilized. Measurements were repeated 1 hr later to establish a baseline temperature for each rat.
After the baseline temperatures were established, rats were injected IP with saline, IL-1β or LPS endotoxin. Rats then were injected IP with either saline (control) or various concentrations of EX-2, EX-3, or EX-4 (treated). The temperature of the rats was measured every hr for 6 hr and the inhibition by EX-2, EX-3, or EX-4 of the rise in temperature due to IL-1β or LPS was determined.
In addition, treatment with 50 or 150 μg/kg EX-2 inhibited LPS-induced fever by 45% or 52%, respectively, when measured 6 hr following LPS injection. Furthermore, treatment with 150 μg/kg EX-3 or EX-4 inhibited LPS-induced fever by 57% and 52%, respectively (Table II).

glomerulonephritis = assay: Glomerulonephritis (nephrotoxic serum), albuminuria; assay type: in vivo, rats; details: 100 μg/kg per injection, 3 times per day
Description: Male Sprague-Dawley rats (weight 194-248 g) were immunized by subcutaneous injection of 1 mg normal rabbit IgG (Sigma Chemical Co.) in Freund's complete adjuvant (Sigma Chemical Co.). EX-2 was administered 3 times per day (100 μg/kg per injection) throughout the duration of the experiment. Seven days later, the rats were injected with 1.5 ml of nephrotoxic serum iv via dorsal penile vein. Urine, plasma, and serum were collected before injection of nephrotoxic serum at 4, 6, 24, 48, and 96 hr thereafter. […] Albuminuria was quantified by immunoelectrophoresis.

Ac-Nle-Gln-His-(D)Phe-Arg-(D)Trp-Gly-NH2 [EX-2]
% Reduction, Zucker NIDDM Diabetes, Body Weight (grams) (Zucker NIDDM diabetes): 32% | % Reduction, Zucker NIDDM Diabetes, Insulin (ng/ml) (Zucker NIDDM diabetes): 39% | % Reduction, Zucker NIDDM Diabetes, Urine Protein (mg/24 hr) (Zucker NIDDM diabetes): 87% | decrease in body weight (Zucker NIDDM diabetes): approximately 100 gram | volunteers in whom plasma IL-10 levels increased (IL-10; 200 ug/kg intravenous infusion): two of four | increase of plasma IL-10 (IL-10; 200 ug/kg intravenous infusion): 85% | volunteers in whom plasma IL-10 levels increased (IL-10; 500 ug/kg intravenous infusion): four of four | increase of plasma IL-10 (IL-10; 500 ug/kg intravenous infusion): 230% | GFR [1]: 0.5 ± 0.1 | RPF [1]: 2.3 ± 0.3 | RVR [1]: 1.8 ± 0.2 | Inhibition of LPS-induced Lethality (increase in survival vs control) (LPS-induced lethality): 83% | Reduction in IL-1-induced Fever (IL-1-induced fever): 52% | % Reduction, Glomerulonephritis, Urine Albumin (mg/day) (glomerulonephritis): 62%

Reference: US5726156A, “Cytokine regulatory agents and methods of use in pathologies and conditions associated with altered cytokine levels” (Trega Biosciences, Inc., priority 1995, dated 1998)
